# Measured values: PMC4916434, “Evaluation of the inhibition potential of plumbagin against cytochrome P450 using LC-MS/MS and cocktail approach” (Scientific Reports, 2016)
# How the values were obtained:
# Type in all cases: in vitro ADME
# [1] = target: T1, CYP2C9 (Homo sapiens, UniProt P11712); experiment: CYP2C9 inhibition (tolbutamide methyl-hydroxylation) in pooled human liver microsomes, cocktail LC-MS/MS
# T1 construct: consisting of pooled HLMs (0.5 mg/ml) or RLMs (1 mg/ml) and an NADPH-regenerating system; tissue Corning Gentest Corporation; host or cells: pooled human liver microsomes (n = 20)
# Experimental: (§1) Microsomal incubation was carried out at 37 °C in a mixture of 200 μl in 0.05 M Tris/HCl buffer (pH 7.4) consisting of pooled HLMs (0.5 mg/ml) or RLMs (1 mg/ml) and an NADPH-regenerating system including MgCl2 (5 mM), G6P (10 mM), G6PDH (0.4 U/ml) and NADP (1 mM). Substrates were added into the incubation mixture and obtained the final concentrations (10 μM phenacetin for CYP1A2, 20 μM bupropion for CYP2B1/6, 20 μM tolbutamide for CYP2C9/11, 5 μM dextromethorphan for CYP2D1/6, 20 μM chlorzoxazone for CYP2E1 and 10 μM midazolam for CYP3A2/4), which were close to Km respectively. The proportion of organic solvent was not higher than 1% (v/v) in the incubation mixture. After pre-incubation for 5 min, the reaction was initiated by addition of NADP. Incubations were performed for 20 min, stopped by adding 200 μl ice-cold acetonitrile. And then 20 μl internal standard solution was added (3-acetamidophenol 2 μg/ml, chlorpropamide 2 μg/ml and mebendazole 2 μg/ml). The solution was mixed thoroughly for 3 min and centrifuged for 10 min at 16,000 × g at 4 °C. The supernatant (60 μl) was transferred to autosampler vials, and 2 μl was injected into LC-MS/MS system.
# (§2) The IC50 (concentration of inhibitor to cause 50% inhibition of original enzyme activity) values were determined with the same incubation condition above. The specific concentrations of plumbagin were ranged from 0.1 μM to 50 μM. The IC50 values were calculated by plotting relative activities over the logarithm of plumbagin concentrations using GraphPad Prism 5.0 (GraphPad software Inc., CA, USA).
# (§3) Cocktail probe substrates were then added and incubated for 20 min. Reactions were stopped with 200 μl ice-cold acetonitrile. The samples were treated according to the microsomal incubation method and then injected into LC-MS/MS for analysis.
# (§4) Kinetic studies were performed for determining the types of inhibition on CYP by plumbagin. Pooled HLMs (0.5 mg/ml) or RLMs (1 mg/ml) with plumbagin (1 μM, 2 μM, 5 μM and 10 μM) were incubated in 0.05 M Tris/HCl buffer (pH 7.4) for 20 min at 37 °C. A series of concentrations for cocktail probe substrates were used: 2.5–20 μM phenacetin for CYP1A2; 5–40 μM bupropion for CYP2B1/6; 5–40 μM tolbutamide for CYP2C9/11; 1.25–10 μM dextromethorphan for CYP2D1/6; 5–40 μM chlorzoxazone for CYP2E1; 2.5–80 μM midazolam for CYP3A2; and 0.625–5 μM midazolam for CYP3A4. Enzyme kinetics as well as statistical analysis were performed using GraphPad Prism 5.0.
# (§5) All data were presented as mean ± SD. The IC50 values were fitted by non-linear regression analysis using GraphPad Prism 5.0. The kinetic parameters were obtained by fitting velocity data to kinetic models (Michaelis-Menten) using GraphPad Prism 5.0. The Lineweaver-Burk Plot (the reciprocal of reaction velocities versus the reciprocal of substrates concentrations) was used to determine the quality of fit to a specific inhibition model. The inhibition constant (Ki) was obtained by a secondary plot using the slopes of the primary Lineweaver-Burk Plot (Km/Vmax versus inhibitor concentrations). αKi was obtained from a secondary plot using the y-intercepts of the Lineweaver-Burk plot (1/Vmax versus inhibitor concentrations). All results were analyzed in quadruplicate. One-way analysis of variance was used to estimate the significance of differences. There was statistical significance between control and test groups if p < 0.05.
# [2] = target: T2, CYP2D6 (Homo sapiens, UniProt P10635); experiment: CYP2D6 inhibition (dextromethorphan O-demethylation) in pooled human liver microsomes, cocktail LC-MS/MS
# T2 construct: consisting of pooled HLMs (0.5 mg/ml) or RLMs (1 mg/ml) and an NADPH-regenerating system; tissue Corning Gentest Corporation; host or cells: pooled human liver microsomes (n = 20)
# Experimental: as §1, §2, §3, §4, §5
# [3] = target: T3, CYP2E1 (Rattus norvegicus, UniProt P05182); experiment: biochemical
# T3 construct: consisting of pooled HLMs (0.5 mg/ml) or RLMs (1 mg/ml) and an NADPH-regenerating system; from tissue; host or cells: rat liver microsomes prepared in house
# Experimental: In this study, the rats were fasted overnight and killed by cervical dislocation before removal of the liver. The liver was excised, rinsed with ice-cold saline (0.9% NaCl w/v), weighed and homogenized in a […] Tris/KCl buffer (pH 7.4). Subsequently, the homogenate was centrifuged at 10,000 × g at 4 °C for 30 min. The supernatant was then centrifuged at 105,000 × g at 4 °C for 60 min. The pellet was reconstituted with […] Tris/KCl buffer (pH 7.4) and stored at −150 °C until use. The protein concentration of the liver microsomes was determined by a protein quantitative assay using bicinchoninic acid[22].
# as §1
# The IC50 (concentration of inhibitor to cause 50% inhibition of original enzyme activity) values were determined with the same incubation condition above. The specific concentrations of plumbagin were ranged from 0.1 μM to 50 μM. […]
# All data were presented as mean ± SD. […] All results were analyzed in quadruplicate. […]
# T2 sequence (P10635 whole entry): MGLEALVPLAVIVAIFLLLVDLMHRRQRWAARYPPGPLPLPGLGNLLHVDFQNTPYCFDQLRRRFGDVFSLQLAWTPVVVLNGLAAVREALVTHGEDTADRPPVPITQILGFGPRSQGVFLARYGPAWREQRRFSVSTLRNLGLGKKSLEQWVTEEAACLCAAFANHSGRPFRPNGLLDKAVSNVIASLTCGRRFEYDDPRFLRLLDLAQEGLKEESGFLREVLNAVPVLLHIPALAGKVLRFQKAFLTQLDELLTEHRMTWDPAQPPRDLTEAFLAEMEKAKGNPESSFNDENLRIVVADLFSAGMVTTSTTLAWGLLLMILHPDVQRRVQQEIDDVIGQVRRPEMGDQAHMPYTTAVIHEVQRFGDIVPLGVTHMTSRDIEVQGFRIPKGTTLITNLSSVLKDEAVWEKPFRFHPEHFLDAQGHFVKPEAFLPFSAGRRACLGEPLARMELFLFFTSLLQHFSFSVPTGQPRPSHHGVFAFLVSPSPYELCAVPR
# T1 sequence (P11712 whole entry): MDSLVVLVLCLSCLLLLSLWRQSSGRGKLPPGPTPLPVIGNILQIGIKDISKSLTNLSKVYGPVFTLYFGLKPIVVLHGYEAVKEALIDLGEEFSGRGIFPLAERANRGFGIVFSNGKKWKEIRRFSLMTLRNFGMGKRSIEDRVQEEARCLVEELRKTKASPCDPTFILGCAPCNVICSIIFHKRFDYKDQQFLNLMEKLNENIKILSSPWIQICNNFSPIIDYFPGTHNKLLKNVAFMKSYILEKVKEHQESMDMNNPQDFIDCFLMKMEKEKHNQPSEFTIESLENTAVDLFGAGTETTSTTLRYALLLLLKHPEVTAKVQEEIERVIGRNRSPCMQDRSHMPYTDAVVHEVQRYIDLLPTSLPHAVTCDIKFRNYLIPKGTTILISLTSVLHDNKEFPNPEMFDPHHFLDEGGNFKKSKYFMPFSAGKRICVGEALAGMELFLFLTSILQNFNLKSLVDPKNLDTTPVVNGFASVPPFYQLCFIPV
# T3 sequence (P05182 whole entry): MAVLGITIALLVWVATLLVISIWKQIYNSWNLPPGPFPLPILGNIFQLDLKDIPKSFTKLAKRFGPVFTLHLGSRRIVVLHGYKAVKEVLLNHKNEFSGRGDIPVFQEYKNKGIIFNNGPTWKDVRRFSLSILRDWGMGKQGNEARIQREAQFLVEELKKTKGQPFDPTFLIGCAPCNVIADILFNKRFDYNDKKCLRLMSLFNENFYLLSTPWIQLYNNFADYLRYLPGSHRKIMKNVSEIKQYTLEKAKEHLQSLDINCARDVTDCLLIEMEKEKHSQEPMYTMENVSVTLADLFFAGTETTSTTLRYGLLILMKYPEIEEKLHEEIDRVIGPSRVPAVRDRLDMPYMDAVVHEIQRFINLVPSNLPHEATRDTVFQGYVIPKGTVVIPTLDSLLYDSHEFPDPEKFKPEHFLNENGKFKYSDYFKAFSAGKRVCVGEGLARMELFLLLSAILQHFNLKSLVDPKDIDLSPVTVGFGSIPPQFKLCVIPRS
compound,measurement,setting,value
"CC1=CC(=O)c2c(O)cccc2C1=O [plumbagin, 5-hydroxy-2-methyl-1,4-naphthoquinone]",IC50,[1],10.9 µM
same,Ki,[1],2.16 µM
same,Type of inhibition,[1],mixed-type
same,αKi,"[1]; HLMs, secondary plot of y-intercepts, tolbutamide 5-40 μM",1.46 µM
same,α,"[1]; human, 20 min, pH 7.4",1.48
same,IC50,[2],10.2 µM
same,Type of inhibition,[2],mixed-type
same,Ki,"[2]; HLMs, secondary Lineweaver-Burk plot, dextromethorphan 1.25-10 μM",1.46 µM
same,α,"[2]; human, 20 min, pH 7.4",0.66
same,αKi,"[2]; human, 20 min, pH 7.4",2.22 µM
same,IC50,[3],3.72 µM
same,Ki,[3],6.28 µM
same,Type of inhibition,[3],competitive
